Measurements reported in patent publication US11331289B2, “Antimicrobial composition” (priority 2017, dated 2022).
Read-outs that look alike come from different tables or passages of the source.

Experiments:
[1] = test system: Staphylococcus aureus no 16302 and no 16315; test: MIC of Oxyclozanide, broth microdilution method; type: cell-based
Method: (§1) In this study, 2 Staphylococcus aureus and 2 Staphylococcus pseudintermedius were tested. These strains were chosen after determination of the Minimum Inhibitory Concentration (MIC) of Oxyclozanide using broth microdilution method.

[2] = test system: Staphylococcus pseudintermedius no 15401 and no 15410; test: MIC of Oxyclozanide, broth microdilution method; type: cell-based
Method: as §1

MRSA 16116 = test: Time-killing curve, inoculum 5.10^5 CFU/ml (MIC 0.5 μg/ml); type: cell-based, Staphylococcus aureus
Method: (§2) The objective of this study is to assess in vitro the time-killing curves of oxyclozanide against four strains of Methicillin-Resistant Staphylococcus from dogs.
(§3) Two Methicillin-Resistant Staphylococcus aureus (MRSA) and two Methicillin-Resistant Staphylococcus pseudintermedius (MRSP) isolated from the clinics have been tested.
(§4) The assessment of time-killing curves has been realized by a broth macrodilution method (Mueller-Hinton II Broth).
(§5) Oxyclozanide is diluted in (DMSO) into sterile tubes in order to obtain the following concentrations from 800 to 6.25 μg/ml. Those concentrations and stock standard solution are then diluted (1/10) in Mueller-Hinton II Broth in order to obtain the following concentrations from […] (See Table 2).
(§6) Each operation is performed under sterile conditions. Each working standard solution (10*the final active ingredient concentration) is distributed in tubes (1 ml, for a final volume of 10 ml after addition of 9 ml of inoculum). One tube without active ingredient is used as growth control (Concentration=0).
(§7) Bacterial isolates are sub-cultured from one cryobead on Columbia agar supplemented with 5% of blood. Pure cultures are incubated during 18-24 hours at 37° C. Three to five isolated colonies of similar appearance are selected from a previous culture and transferred into tubes containing 9 ml of Mueller-Hinton II Broth. The broth is incubated during 12-18 hours at 37° C. 0.5 to 1 ml of this broth is inoculated to another Mueller-Hinton II Broth 9 ml tube which is incubated during 3 to 4 hours at 37° C. to reach the exponential growth phase. The bacterial inoculum grown exponential phase is suspended to an optical density of McFarland standard scale 0.5 equivalent to a bacterial density of 10^8 CFU/ml and then adjusted to a concentration of about 5.10^5 CFU/ml as indicated by the guideline CLSI M26-A and to a second inoculum tested: 10^6 CFU/ml.
(§8) 9 ml of bacterial inoculum grown to exponential phase is added to 1 ml of active ingredient (or Mueller Hinton II Broth for the growth control). Tubes are incubated at 35° C. during 24 hours.
(§9) At times 0, 2, 4, 6 and 24 hours, 100 μl of broth of each tube is sampled and diluted in microplates:
(§10) Each well is re-cultured by streaking 10 μl on Columbia agar supplemented with 5% of blood. Plates are incubated at 37° C. during 18-24 hours incubation. Thus, residual bacterial concentrations are determined (CFU/ml). Results are expressed in log10 values of CFU/ml over-time in broth. Due to the procedure used, the minimal bacterial concentration that can be assessed is 10^2 CFU/ml.

MRSP 16127 = test: Time-killing curve, inoculum 10^6 CFU/ml (MIC 0.25 μg/ml); type: cell-based, Staphylococcus pseudintermedius
Method: as §2, §3, §4, §5, §6, §7, §8, §9, §10

O=C(Nc1cc(Cl)cc(Cl)c1O)c1c(O)c(Cl)cc(Cl)c1Cl [Oxyclozanide]
MIC ([1]; Staphylococcus aureus, no 16302, read-out: MIC): 0.5 µg/mL
MIC ([1]; no 16315): 0.5 µg/mL
MIC ([2]; Staphylococcus pseudintermedius, no 15401, read-out: MIC): 0.125 µg/mL
MIC ([2]; no 15410): 0.125 µg/mL
Counting results (MRSA 16116; 1 MIC, 0 h): 3.900E+05 CFU/ml
Counting results (MRSA 16116; 1 MIC, 2 h): 1.700E+06 CFU/ml
Counting results (MRSA 16116; 1 MIC, 4 h): 2.500E+07 CFU/ml
Counting results (MRSA 16116; 1 MIC, 6 h): 1.600E+08 CFU/ml
Counting results (MRSA 16116; 1 MIC, 24 h): 1.300E+08 CFU/ml
Counting results (MRSA 16116; 2 MIC, 0 h): 3.900E+05 CFU/ml
Counting results (MRSA 16116; 2 MIC, 2 h): 1.200E+05 CFU/ml
Counting results (MRSA 16116; 2 MIC, 4 h): 1.300E+04 CFU/ml
Counting results (MRSA 16116; 2 MIC, 6 h): 1.400E+04 CFU/ml
Counting results (MRSA 16116; 2 MIC, 24 h): 3.500E+06 CFU/ml
Counting results (MRSA 16116; 4 MIC, 0 h): 3.900E+05 CFU/ml
Counting results (MRSA 16116; 4 MIC, 2 h): 6.000E+03 CFU/ml
Counting results (MRSA 16116; 4 MIC, 4 h): 6.000E+02 CFU/ml
Counting results (MRSA 16116; 4 MIC, 6 h): 4.000E+02 CFU/ml
Counting results (MRSA 16116; 4 MIC, 24 h): 1.000E+02 CFU/ml
Counting results (MRSA 16116; 8 MIC, 0 h): 3.900E+05 CFU/ml
Counting results (MRSA 16116; 8 MIC, 2 h): 5.000E+02 CFU/ml
Counting results (MRSA 16116; 8 MIC, 4 h): 1.000E+02 CFU/ml
Counting results (MRSA 16116; 8 MIC, 6 h): 1.000E+02 CFU/ml
Counting results (MRSA 16116; 8 MIC, 24 h): 1.000E+02 CFU/ml
Counting results (MRSA 16116; 16 MIC, 0 h): 3.900E+05 CFU/ml
Counting results (MRSA 16116; 16 MIC, 2 h): 3.000E+02 CFU/ml
Counting results (MRSA 16116; 16 MIC, 4 h): 1.000E+02 CFU/ml
Counting results (MRSA 16116; 16 MIC, 6 h): 3.000E+02 CFU/ml
Counting results (MRSA 16116; 16 MIC, 24 h): 1.000E+02 CFU/ml
Time to obtain bactericidal effect at 4 MIC (MRSA 16116; 16116/5.10^5 CFU/ml, >=3 log10 decrease in CFU): 4 to 6 h
Counting results (MRSA 16116; ¼ MIC, 0 h): 3.900E+05 CFU/ml
Counting results (MRSA 16116; ¼ MIC, 2 h): 2.000E+06 CFU/ml
Counting results (MRSA 16116; ¼ MIC, 4 h): 4.000E+07 CFU/ml
Counting results (MRSA 16116; ¼ MIC, 6 h): 3.000E+08 CFU/ml
Counting results (MRSA 16116; ¼ MIC, 24 h): 1.900E+09 CFU/ml
Counting results (MRSA 16116; ½ MIC, 0 h): 3.900E+05 CFU/ml
Counting results (MRSA 16116; ½ MIC, 2 h): 1.700E+06 CFU/ml
Counting results (MRSA 16116; ½ MIC, 4 h): 3.000E+07 CFU/ml
Counting results (MRSA 16116; ½ MIC, 6 h): 1.400E+08 CFU/ml
Counting results (MRSA 16116; ½ MIC, 24 h): 2.600E+08 CFU/ml
Counting results (MRSP 16127; 1 MIC, 0 h): 9.000E+05 CFU/ml
Counting results (MRSP 16127; 1 MIC, 2 h): 4.100E+05 CFU/ml
Counting results (MRSP 16127; 1 MIC, 4 h): 4.000E+06 CFU/ml
Counting results (MRSP 16127; 1 MIC, 6 h): 7.500E+06 CFU/ml
Counting results (MRSP 16127; 1 MIC, 24 h): 9.000E+07 CFU/ml
Counting results (MRSP 16127; 2 MIC, 0 h): 9.000E+05 CFU/ml
Counting results (MRSP 16127; 2 MIC, 2 h): 4.100E+05 CFU/ml
Counting results (MRSP 16127; 2 MIC, 4 h): 5.400E+05 CFU/ml
Counting results (MRSP 16127; 2 MIC, 6 h): 2.500E+06 CFU/ml
Counting results (MRSP 16127; 2 MIC, 24 h): 7.600E+06 CFU/ml
Counting results (MRSP 16127; 4 MIC, 0 h): 9.000E+05 CFU/ml
Counting results (MRSP 16127; 4 MIC, 2 h): 1.700E+04 CFU/ml
Counting results (MRSP 16127; 4 MIC, 4 h): 1.500E+03 CFU/ml
Counting results (MRSP 16127; 4 MIC, 6 h): 3.000E+02 CFU/ml
Counting results (MRSP 16127; 4 MIC, 24 h): 8.000E+02 CFU/ml
Counting results (MRSP 16127; 8 MIC, 0 h): 9.000E+05 CFU/ml
Counting results (MRSP 16127; 8 MIC, 2 h): 5.200E+03 CFU/ml
Counting results (MRSP 16127; 8 MIC, 4 h): 1.000E+02 CFU/ml
Counting results (MRSP 16127; 8 MIC, 6 h): 1.000E+02 CFU/ml
Counting results (MRSP 16127; 8 MIC, 24 h): 1.000E+02 CFU/ml
Counting results (MRSP 16127; 16 MIC, 0 h): 9.000E+05 CFU/ml
Counting results (MRSP 16127; 16 MIC, 2 h): 1.200E+03 CFU/ml
Counting results (MRSP 16127; 16 MIC, 4 h): 1.000E+02 CFU/ml
Counting results (MRSP 16127; 16 MIC, 6 h): 1.000E+02 CFU/ml
Counting results (MRSP 16127; 16 MIC, 24 h): 1.000E+02 CFU/ml
Time to obtain bactericidal effect at 4 MIC (MRSP 16127; 16127/10^6 CFU/ml, >=3 log10 decrease in CFU): 4 to 6 h
Counting results (MRSP 16127; ¼ MIC, 0 h): 9.000E+05 CFU/ml
Counting results (MRSP 16127; ¼ MIC, 2 h): 5.100E+05 CFU/ml
Counting results (MRSP 16127; ¼ MIC, 4 h): 4.200E+06 CFU/ml
Counting results (MRSP 16127; ¼ MIC, 6 h): 3.000E+07 CFU/ml
Counting results (MRSP 16127; ¼ MIC, 24 h): 4.900E+10 CFU/ml
Counting results (MRSP 16127; ½ MIC, 0 h): 9.000E+05 CFU/ml
Counting results (MRSP 16127; ½ MIC, 2 h): 4.300E+05 CFU/ml
Counting results (MRSP 16127; ½ MIC, 4 h): 3.700E+06 CFU/ml
Counting results (MRSP 16127; ½ MIC, 6 h): 2.100E+07 CFU/ml
Counting results (MRSP 16127; ½ MIC, 24 h): 3.400E+09 CFU/ml
